2 compounds from ChEMBL document CHEMBL4256942, “Exo Olefin-Containing Nuclear Transport Modulators and Uses Thereof” (2016) can be followed below.

The target in the test is Exportin-1 (Homo sapiens, UniProt O14980). Nature of the test: Inhibition of CRM1 in human HeLa cells expressing GFP which is N-terminally fused to nuclear localization and C-terminally fused to nuclear export signal of PKI assesed as reduction in GFP subcellular localization incubated for 3 hrs by nuclear export assay. It counts as cell-based.

Usually EC50 stands for the concentration needed to bring the measured effect to its halfway point. A lower EC50 goes with an effect from little substance.

Sequence of Exportin-1 (O14980 whole entry, the tested form may be a part): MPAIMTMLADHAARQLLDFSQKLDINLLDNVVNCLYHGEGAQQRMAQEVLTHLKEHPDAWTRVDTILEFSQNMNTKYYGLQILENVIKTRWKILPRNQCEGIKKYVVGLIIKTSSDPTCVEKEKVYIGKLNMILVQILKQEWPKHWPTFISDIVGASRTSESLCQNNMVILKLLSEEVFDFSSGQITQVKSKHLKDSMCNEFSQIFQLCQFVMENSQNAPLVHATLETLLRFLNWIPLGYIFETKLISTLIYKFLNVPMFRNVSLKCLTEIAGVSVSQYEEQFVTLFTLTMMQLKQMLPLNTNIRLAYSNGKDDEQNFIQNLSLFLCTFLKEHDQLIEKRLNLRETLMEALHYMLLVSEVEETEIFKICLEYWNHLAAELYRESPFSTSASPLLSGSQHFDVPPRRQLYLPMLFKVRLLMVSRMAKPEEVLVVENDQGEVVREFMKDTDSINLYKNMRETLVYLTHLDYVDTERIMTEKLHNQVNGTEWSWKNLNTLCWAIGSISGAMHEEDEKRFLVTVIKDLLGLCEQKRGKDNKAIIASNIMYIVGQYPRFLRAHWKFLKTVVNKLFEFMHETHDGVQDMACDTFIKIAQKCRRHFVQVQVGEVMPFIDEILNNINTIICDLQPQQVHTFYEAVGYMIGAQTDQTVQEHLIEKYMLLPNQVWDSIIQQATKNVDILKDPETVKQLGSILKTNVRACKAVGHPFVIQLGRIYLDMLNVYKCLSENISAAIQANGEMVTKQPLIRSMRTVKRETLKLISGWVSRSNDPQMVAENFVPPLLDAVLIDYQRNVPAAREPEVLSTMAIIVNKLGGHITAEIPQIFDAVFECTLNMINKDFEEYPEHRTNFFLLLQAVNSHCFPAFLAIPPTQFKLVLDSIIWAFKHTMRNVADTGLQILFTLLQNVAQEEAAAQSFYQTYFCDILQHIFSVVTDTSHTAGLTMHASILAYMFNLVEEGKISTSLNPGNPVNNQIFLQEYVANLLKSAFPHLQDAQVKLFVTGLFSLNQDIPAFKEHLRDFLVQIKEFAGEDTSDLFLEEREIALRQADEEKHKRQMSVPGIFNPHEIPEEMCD

`C=C(Cn1nnc(-c2cccc(Cl)c2)n1)C(=O)OCC` had an EC50 of 30 µM. This counts as double-digit micromolar. As for `C=C(Cn1nnc(-c2cccc(C(F)(F)F)c2)n1)C(=O)OCC`, the figure is 30 µM.
